Measured values taken from patent publication US20050075382A1, “N-Aryl-2-cyanooxazolidinones and their derivatives” (priority 2003, published 2005).
In brackets after ≈: the same amount, converted by molar mass.

Each compound was assayed on Staphylococcus aureus (SAUR 9213) (assay: MIC by standard agar dilution method). Conditions: Mueller Hinton agar, overnight at 35° C.
Format: cell-based
Description: The antibacterial agents of this invention have useful activity against a variety of organisms. The in vitro activity of compounds of this invention can be assessed by standard testing procedures such as the determination of minimum inhibitory concentration (MIC) by agar dilution as described in “Approved Standard. Methods for Dilution Antimicrobial Susceptibility Tests for Bacteria That Grow Aerobically”, 3rd. ed., published 1993 by the National Committee for Clinical Laboratory Standards, Villanova, Pa., USA. The in vitro MICs of test compounds are determined by a standard agar dilution method. A stock drug solution of each analog is prepared in the preferred solvent, usually DMSO:H2O (1:3). Serial 2-fold dilutions of each sample are made using 1.0 ml aliquots of sterile distilled water. To each 1.0 ml aliquot of drug is added 9 ml of molten Mueller Hinton agar medium. The drug-supplemented agar is mixed, poured into 15×100 mm petri dishes, and allowed to solidify and dry prior to inoculation. Vials of each of the test organisms are maintained frozen in the vapor phase of a liquid nitrogen freezer. Test cultures are grown overnight at 35° C. on the medium appropriate for the organism. Colonies are harvested with a sterile swab, and cell suspensions are prepared in Trypticase Soy broth (TSB) to equal the turbidity of a 0.5 McFarland standard. A 1:20 dilution of each suspension is made in TSB. The plates containing the drug supplemented agar are inoculated with a 0.001 ml drop of the cell suspension using a Steers replicator, yielding approximately 10^4 to 10^5 cells per spot. The plates are incubated overnight at 35° C. Following incubation the Minimum Inhibitory Concentration (MIC μg/ml), the lowest concentration of drug that inhibits visible growth of the organism, is read and recorded.

Row | SMILES | MIC
1 | N#C[C@H]1CN(c2ccc(C3CCS(=O)(=O)CC3)c(F)c2)C(=O)O1 [Example 1, (5R)-3-[4-(1,1-dioxidotetrahydro-2H-thiopyran-4-yl)-3-fluorophenyl]-2-oxo-1,3-oxazolidine-5-carbonitrile] | 1 µg/mL (≈ 2.96 µM)
2 | N#C[C@H]1CN(c2ccc(N3CCOCC3)c(F)c2)C(=O)O1 [Example 2, (5R)-3-(3-fluoro-4-morpholin-4-ylphenyl)-2-oxo-1,3-oxazolidine-5-carbonitrile] | 8 µg/mL (≈ 27.5 µM)
3 | N#C[C@H]1CN(c2cc(F)c(N3CCS(=O)(=O)CC3)c(F)c2)C(=O)O1 [Example 3, (5R)-3-[4-(1,1-dioxidothiomorpholin-4-yl)-3,5-difluorophenyl]-2-oxo-1,3-oxazolidine-5-carbonitrile] | 2 µg/mL (≈ 5.6 µM)
4 | Cc1nnc(-c2ccc(N3C[C@H](C#N)OC3=O)cc2F)s1 [Example 4, (5R)-3-[3-fluoro-4-(5-methyl-1,3,4-thiadiazol-2-yl)phenyl]-2-oxo-1,3-oxazolidine-5-carbonitrile] | 4 µg/mL (≈ 13.1 µM)
5 | N#C[C@H]1CN(c2ccc(-c3ccncc3)c(F)c2)C(=O)O1 [Example 5, (5R)-3-(3-fluoro-4-pyridin-4-ylphenyl)-2-oxo-1,3-oxazolidine-5-carbonitrile] | 0.5 µg/mL (≈ 1.77 µM)
